Experimental data reported in patent publication US12275734B1, “Pleuromutilin onium salt derivative containing a 3H-imidazo[4,5-c]pyridine side chain, and a preparation method and application thereof” (SHAANXI UNIVERSITY OF SCIENCE AND TECHNOLOGY, priority 2024, dated 2025).

System: MRSA (ATCC 33591)
Assay: Bacterial extracellular conductivity
Assay type: cell-based, S. aureus
Conditions: 1×MIC and 2×MIC, vs blank control
Source text: Changes in conductivity can reflect the permeability and integrity of the cell membrane. When the cell membrane is damaged or the permeability increases, the flow of ions inside and outside the cell will increase, resulting in an increase in conductivity. In the fields of biology and cell biology, conductivity measurements are often used to assess changes in cell membrane integrity.
MRSA and E. coli cells in the logarithmic growth phase were first resuspended after high-speed centrifugation and repeated PBS buffer washing and adjusted to the appropriate optical density. Next, different concentrations of compound i (1×MIC and 2×MIC) were added to the cell suspension, and a blank control group was set. All samples were incubated at 37° C. and sampled at set time points (0, 1, 2, 4, 6, and 8 hours). […] This series of operations helps to reveal the specific mechanism of action of compound i on bacterial growth and cell structure.

Compound: C=C[C@]1(C)C[C@@H](OC(=O)CSc2nc3cc[n+](Cc4ccc(C)cc4)cc3[nH]2)[C@]2(C)[C@H](C)CC[C@]3(CCC(=O)[C@H]32)[C@@H](C)[C@@H]1O [Compound i, 5-(4-methylbenzyl)-2-((2-(((3aR,4R,5R,7S,8S,9R,9aS,12R)-8-hydroxy-4,7,9,12-tetramethyl-3-oxo-7-vinyldecahydro-4,9a-propancyclopenta[8]cyclo-5-yl)oxy)-2-oxoethyl)thio)-3H-imidazo[4,5-C]pyridine-5-ium]
- extracellular conductivity: increased
